In US7863330B2, “Deloxiglumide and proton pump inhibitor combination in the treatment of gastrointestinal disorders” (Rottapharm S.p.A., priority 2006, dated 2011):

How the values were obtained:
[1] = tested on: acute reflux esophagitis in pylorus-ligated rats; assay: Acute reflux esophagitis in pylorus- and limiting ridge-ligated rats; assay type: in vivo; parameters: key to Average Score lesions: lesion index 0 = no lesion to 6 = hemorrhage >40 mm/perforation; conditions: for ED50: Rattus norvegicus, intraduodenal, compound administered separately, intraduodenally, from dose-response regression line, read-out: ED50 (dose which reduces the esophagus lesions by 50%); for % Effect vs. control: after 3 hours; for Average Score lesions: esophagus lesion index 0-6 after 3 hours
Procedure: Male rats of 175-200 g body weight were fasted for 24 hours prior the experiment. Water was allowed ad libitum. Under ether anesthesia, the abdomen was incised along the midline, and both pylorus and limiting ridge (transitional region between the forestomach and corpus) were simultaneously ligated. Consequently, the total capacity of the stomach to hold gastric juice was greatly diminished, resulting in reflux of gastric juice into the esophagus. Following ligation of pylorus and limiting ridge, the test compounds were given intraduodenally (5 ml/kg), and the abdomen was closed by suturing. After 3 hours, rats were killed by ether overdose and the gastroesophageal portion was excised. The lesion in the thoracic esophagus was scored macroscopically, using a lesion index according to the following criteria: no lesion as 0; edema as 1; reddening as 2; the length of hemorrhagic area<20 mm as 3; the length of hemorrhagic area 20-30 mm as 4; the length of hemorrhagic area 30-40 mm as 5; the length of hemorrhagic area>40 mm or perforation as 6.
The doses of the tested compounds which reduce of 50% the esophagus lesions (ED50) and their P=0.05 fiducial limits were calculated from the dose-response regression line.

CCK1 receptors = biological target: T1, CCK1 receptors (Homo sapiens, UniProt P32238); conditions: cited from earlier work
T1 sequence (P32238 1-428): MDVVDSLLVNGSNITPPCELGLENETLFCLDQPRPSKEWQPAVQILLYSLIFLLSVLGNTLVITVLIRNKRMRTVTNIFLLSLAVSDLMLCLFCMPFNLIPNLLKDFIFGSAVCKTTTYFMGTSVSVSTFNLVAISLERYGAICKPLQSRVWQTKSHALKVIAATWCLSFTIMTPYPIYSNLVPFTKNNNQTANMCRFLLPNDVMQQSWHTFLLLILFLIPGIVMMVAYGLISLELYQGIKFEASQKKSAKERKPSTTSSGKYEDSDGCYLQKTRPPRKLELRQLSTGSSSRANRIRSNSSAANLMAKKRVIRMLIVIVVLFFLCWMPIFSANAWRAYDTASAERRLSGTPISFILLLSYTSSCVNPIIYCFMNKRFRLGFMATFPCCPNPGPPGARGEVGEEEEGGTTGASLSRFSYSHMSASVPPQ

CCK2 receptors = biological target: T2, CCK2 receptors (Homo sapiens, UniProt P32239); conditions: cited from earlier work
T2 sequence (P32239 1-447): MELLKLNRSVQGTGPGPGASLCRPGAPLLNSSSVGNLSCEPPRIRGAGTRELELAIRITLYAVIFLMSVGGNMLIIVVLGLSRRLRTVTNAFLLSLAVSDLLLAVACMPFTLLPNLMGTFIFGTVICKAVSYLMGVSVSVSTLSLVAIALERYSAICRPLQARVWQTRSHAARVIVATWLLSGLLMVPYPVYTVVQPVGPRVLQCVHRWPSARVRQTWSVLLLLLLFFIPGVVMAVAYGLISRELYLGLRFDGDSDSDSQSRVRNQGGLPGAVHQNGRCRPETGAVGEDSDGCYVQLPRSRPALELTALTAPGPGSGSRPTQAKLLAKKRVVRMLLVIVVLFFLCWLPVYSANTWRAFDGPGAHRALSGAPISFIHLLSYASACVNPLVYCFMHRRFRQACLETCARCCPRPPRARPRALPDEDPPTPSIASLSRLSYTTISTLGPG

[2] = tested on: endogenous and exogenous CCK; conditions: cited from earlier work
[3] = tested on: CCK-induced delay in gastric emptying; conditions: healthy subjects; cited from earlier work
[4] = tested on: CCK release in response to duodenal lipid infusion; conditions: healthy subjects, cited from earlier work
[5] = tested on: antro-pyloroduodenal dysmotility; conditions: healthy subjects; intraduodenal infusion of a mixed liquid meal; cited from earlier work
nonulcer dyspepsia = conditions: cited from earlier work
functional dyspepsia = conditions: patients with functional dyspepsia; duodenal infusion of lipid with or without balloon distension; compared to placebo; cited from earlier work
[6] = tested on: gastrointestinal motility; conditions: preclinical and clinical studies; cited from earlier work

COc1ccc2[nH]c([S+]([O-])Cc3ncc(C)c(OC)c3C)nc2c1 (stereo not drawn) [Omeprazole]
ED50 [1]: 5.4 mg/kg | % Effect vs. control ([1]; dose 0.1 mg/kg intraduodenally): 3.4% | Average Score lesions ([1]; dose 0.1 mg/kg intraduodenally): 5.6 | % Effect vs. control ([1]; dose 0.3 mg/kg intraduodenally): 0% | Average Score lesions ([1]; dose 0.3 mg/kg intraduodenally): 5.8 | % Effect vs. control ([1]; dose 1.0 mg/kg intraduodenally): 14.3% | Average Score lesions ([1]; dose 1.0 mg/kg intraduodenally): 4.8 | % Effect vs. control ([1]; dose 3.0 mg/kg intraduodenally): 53.4% | Average Score lesions ([1]; dose 3.0 mg/kg intraduodenally): 2.7

CCCN(CCC)C(=O)C(CCC(=O)O)NC(=O)c1ccccc1 (stereo not drawn) [proglumide]
potency and specificity as CCK receptor antagonist (CCK1 receptors): low potency and specificity | binding to CCK2 receptors (CCK2 receptors): effectively binds CCK2 receptors

CCCCCN(CCCOC)C(=O)C(CCC(=O)O)NC(=O)c1ccc(Cl)c(Cl)c1 (racemic) [Loxiglumide, R,S-4-(3,4-dichlorobenzoylamino)-5-(N-3-methoxypropyl-pentylamino)-5-oxo-pentanoic acid]
potency and specificity as CCK receptor antagonist (CCK1 receptors): potent, specific competitive antagonists | activity after oral administration [2]: active after oral administration | exogenous and endogenous CCK-induced delay in gastric emptying of liquids and solids [3]: reduced | proximal gastric relaxation ([4]; duodenal infusion of lipid): the relaxation was reversed | intragastric pressure ([4]; duodenal infusion of lipids): able to reverse the lowering of intragastric pressure | antro-pyloroduodenal dysmotility [5]: modulated antro-pyloroduodenal dysmotility | dyspeptic symptoms (nonulcer dyspepsia; patients with non-ulcer dyspepsia, 8-week study): significantly improved dyspeptic symptoms | gastric emptying (nonulcer dyspepsia; patients with nonulcer dyspepsia and delayed gastric emptying, comparison to placebo): accelerate gastric emptying

CCCCCN(CCCCC)C(=O)C(CCC(=O)O)NC(=O)c1ccc(Cl)c(Cl)c1 (racemic) [Lorglumide, R,S-4-[(3,4-Dichlorobenzoyl)amino]-5-(dipentylamino)-5-oxopentanoic acid]
potency and specificity as CCK receptor antagonist (CCK1 receptors): potent, specific competitive antagonists | activity after oral administration [2]: active after oral administration

CCCCCN(CCCOC)C(=O)[C@@H](CCC(=O)O)NC(=O)c1ccc(Cl)c(Cl)c1 [Dexloxiglumide, R-4-(3,4-dichlorobenzoylamino)-5-(N-3-methoxypropyl-pentylamino)-5-oxo-pentanoic acid]
ED50 [1]: 37.5 mg/kg | % Effect vs. control ([1]; dose 10 mg/kg intraduodenally): 0% | Average Score lesions ([1]; dose 10 mg/kg intraduodenally): 5.8 | % Effect vs. control ([1]; dose 20 mg/kg intraduodenally): 17.2% | Average Score lesions ([1]; dose 20 mg/kg intraduodenally): 4.8 | % Effect vs. control ([1]; dose 40 mg/kg intraduodenally): 51.7% | Average Score lesions ([1]; dose 40 mg/kg intraduodenally): 2.6 | % Effect vs. control ([1]; dose 60 mg/kg intraduodenally): 62.1% | Average Score lesions ([1]; dose 60 mg/kg intraduodenally): 2.2 | % Effect vs. control ([1]; dose 100 mg/kg intraduodenally): 100% | Average Score lesions ([1]; dose 100 mg/kg intraduodenally): 0 | potency relative to the racemic compound (loxiglumide) (CCK1 receptors; anti-CCK activity): approximately twice | tolerance to water volume ([4]; duodenal lipid infusion): reversed the diminished tolerance to water volume | dyspepsia symptom scores (functional dyspepsia): significantly improved dyspepsia symptom scores | colonic transit [6]: accelerates colonic transit | gallbladder contraction [6]: effective inhibitor of gallbladder contraction | gastric emptying [6]: accelerates gastric emptying | lower esophageal sphincter (LES) function [6]: improves lower esophageal sphincter (LES) function
